Data: publication PMC6891695, “Evaluation of Antifouling Potential and Ecotoxicity of Secondary Metabolites Derived from Red Algae of the Genus Laurencia” (Marine Drugs, 2019)
pEC50, pIC50: −log10 of the molar value. Read-outs that look alike come from different tables or passages of the source.

Assays:
in vivo = assay type: in vivo; conditions: Amphibalanus amphitrite, in vivo, read-out: LC50 Mortality; for LC50 at 24 h: 24 h exposure; for LC50 at 48 h: 48 h exposure; for LC50 at 72 h: 72 h exposure
Method: (§1) Adult A. amphitrite (Cirripedia, Balanidae) were collected from boat docks at Port Mikrolimano and Floisvos, Athens, Greece. Animals were cleaned of epibionts with a small hard brush and meticulously identified as individuals of the species. Adult barnacles were kept in separate aerated glass tanks (20 L) containing 200-μm filtered natural seawater at 27 °C and a 12:12 L:D photoperiod. Tanks were fed with 24-h hatched Artemia sp. (Branchiopoda) nauplii and Tetraselmis suecica (Chlorodendrophyceae) and Skeletonema costatum (Bacillariophyceae) algae each day and seawater was changed on alternate days. Upon stress to induce oviposition (exposure to air for 24 h or immersion in fresh water for 5 h), adults were returned to seawater for larval release. Hatched nauplii were attracted to a point light source, collected and placed into a beaker containing 2 or 3 L of 0.7 μm GF/F (GE Healthcare, Little Chalfont, UK )-filtered natural seawater at a density of approximately 1–2 nauplii/mL with gentle aeration. Nauplii were maintained at 27 °C at a 12:12 L:D photoperiod on a diet of C. gracilis (Bacillariophyceae) provided at a density of 2 × 10^5 cells/mL. Cultured in these conditions, nauplii metamorphosed to cyprids in 5 days. Aliquots of these cyprids were collected with a wide-mouthed Pasteur pipette and aged at 4 °C for 1 day prior to use in settlement assays. Only batches of cyprids that were active and had numerous oil cells, representing energy reserves, were used in settlement assays.
(§2) Assays were conducted by adding 10 cyprids into individual wells of a 24-well polystyrene sterile microplate (Orange Scientific, Braine l’Alleud, Belgium) with 2 mL of artificial sea water (ASW) (25‰) and various concentrations of the chemical compounds as listed in Table 1. These experiments were repeated at least three times with four replicates for each concentration of any given compound (n = 120 cyprids/compound). Stock solutions for all compounds were prepared in methanol (Scharlab, Barcelona, Spain) and serial dilutions were prepared in 0.7 μm (GF/F, GE Healthcare, Little Chalfont, UK), filtered sea water to have a final concentration of 2.5% methanol in each assay solution. Plates were covered and sealed with Parafilm® to avoid evaporation and incubated at 25 °C away from any light source and examined after 24, 48 and 72 h. Each animal was inspected under a stereomicroscope and its condition was recorded. […] Both permanently attached and metamorphosed individuals were counted as settled or juveniles. The remainder were counted as ‘no metamorphosis’, i.e. animals that responded to light touch and were still cyprids at the end of the experiments with no overt signs of metamorphosis.
(§3) For EC50 or IC50 (the concentration that results in 50% stimulation or inhibition relative to the control) calculations in GraphPad Prism v.6, all data were fitted to the curve according to the following models for normalized response: Y = 100/(1 + 10^((X − LogIC50))) or Y = 100/(1 + 10^((LogEC50 − X))) depending on the trend of the curve.

cyprids of A. amphitrite = assay: whole plant or invertebrate; assay type: in vivo; conditions: for pEC50 / pIC50: Amphibalanus amphitrite; for pEC50: read-out: EC50 No Metamorphosis; for pIC50: read-out: IC50 Settlement; for toxic effect on cyprids: in vivo
Method: as §1, §2, §3

SMILES	LC50 at 24 h (in vivo) [µM]	LC50 at 48 h (in vivo) [µM]	LC50 at 72 h (in vivo) [µM]	pEC50 (cyprids of A. amphitrite; 24 h)	pIC50 (cyprids of A. amphitrite; 24 h)	pIC50 (cyprids of A. amphitrite; 48 h)	pIC50 (cyprids of A. amphitrite; 72 h)	pEC50 (cyprids of A. amphitrite; 48 h)	pEC50 (cyprids of A. amphitrite; 72 h)	toxic effect on cyprids (cyprids of A. amphitrite)
C=C1CC[C@@](C)(c2ccc(C)cc2)[C@H]1C [Compound 1, laurene]	26	230	29.5	4.42	4.55	4.83	4.79	–	–	–
C=C1CC[C@@](C)(c2ccc(C)cc2OC(C)=O)[C@H]1C [Compound 2, debromoallolaurinterol acetate]	> 1000	790	191	4.36	5.69	4.74	4.70	4.42	4.44	–
C=C1CC[C@@](C)(c2cc(Br)c(C)cc2OC(C)=O)[C@H]1C [Compound 3, allolaurinterol acetate]	66.1	382	269	–	5.98	5.74	5.70	4.09	3.96	–
Cc1cc2c(cc1Br)C1(C)CCC(C)(O2)C1C (stereo not drawn) [Compound 5, filiformin]	33.1	–	–	4.57	5.65	5.26	4.89	9.00	6.54	–
Cc1cc(O)c(C2(C)CCC3CC32C)cc1Br (stereo not drawn) [Compound 6, laurinterol]	12.3	5.29	2.31	4.55	5.62	5.65	5.90	4.96	4.82	obvious toxic effect on cyprids
CC(C)[C@H]1CC(C)(C)[C@@H](O)C2=C1CC[C@H]2C [Compound 7, epibrasilenol]	24.8	23.4	25	4.59	4.76	4.75	4.99	4.66	4.27	–
CC(C)C1=C2CCC(C)C2CC(C)(C)C1O (stereo not drawn) [Compound 8, 4-hydroxy-5-brasilene]	7.76	7.38	5.93	5.17	4.80	4.76	5.16	5.30	5.27	obvious toxic effect on cyprids
CC1=CC[C@@]2(C)C(=C(C)C(=O)[C@@H](O)[C@@H]2C)CC1 [Compound 10, perforenone A]	28.8	28.5	28.8	4.41	5.28	6.18	5.33	4.15	4.24	–
